In patent US9675642B2, “Engineered dendritic cells and uses for the treatment of cancer” (Intrexon Corporation, priority 2007, dated 2017):

Legend:
[1] = tested on: human dendritic cells transduced with adenoviral vector Ad-RTS-mIL-12; test: IL-12 production by human DC transduced with Ad-RTS-mIL-12; assay type: cell-based; details: 3 hour viral adsorption at MOI of 500
Excerpt: The activator drug (“AD” or “activating ligand”) induced IL-12 expression in these transduced human dendritic cells.

[2] = tested on: mouse dendritic cells transduced with Ad-RTS-mIL-12; test: Activator Drug dose-dependent IL-12 expression in mouse DC transduced with Ad-RTS-mIL-12; assay type: cell-based; details: varying doses of Activator Drug
[3] = tested on: B16 melanomas; test: Ligand route/dose comparison with i.t. DC.SP1-IL12 in B16 melanoma; assay type: in vivo, B6 mice
Protocol: B16 melanomas were established s.c. for 7 days in the right flanks of syngenic B6 mice. On day 7, 10^6 DC.SP1-IL12 (optimal switch identified in FIG. 10 comparison) were injected intratumorally (i.t.). Activating ligand (RG-115932) was provided either as an injection i.p., via oral gavage in Labrasol, or via drug-containing chow provided ad libitum beginning on the day preceding DC injection (and daily thereafter for 6 days). Each cohort contained 5 animals, with tumor growth monitored every 3-4 days and reported as mean size (mm^2 based on the product of orthogonal measurements). The treatment for each cohort is described below.

[4] = tested on: RTS; test: Activation of the RTS by ligand enantiomer; details: R enantiomer versus racemic mixture
Protocol: DC-SP1 i.t. therapy using i.p. administered ligand yielded a clear ligand dose-tumor inhibition response pattern, with optimal anti-tumor effects at ligand doses >30 mg/kg/day. […] 20-22.5 mg/kg/day of the active enantiomer. […] The availability of oral administration of the ligand would ease the burden of the treatment on patients.
The recombinant DNA used as the recombinant adenoviral vector allows the expression of human IL-12 under the control of the RheoSwitch® Therapeutic System (RTS). The RTS comprises a bicistronic message expressed from the human Ubiquitin C promoter and codes for two fusion proteins: Gal4-EcR and VP16-RXR. Gal4-EcR is a fusion between the DNA binding domain (amino acids 1-147) of yeast Gal4 and the DEF domains of the ecdysone receptor from the insect Choristoneura fumiferana. […] VP16-RXR is a fusion between the transcription activation domain of HSV-VP16 and the EF domains of a chimeric RXR derived from human and locust sequences. […]

[5] = tested on: human and mouse cell lines and primary dendritic cells transduced with recombinant adenoviral vector carrying the genes for IL12; test: IL12 induction in cell lines and primary DC transduced with IL12 adenoviral vector; assay type: cell-based; details: in vitro
[6] = tested on: B16 melanoma; test: DC dose and duration of ligand administration in B16 melanoma; assay type: in vivo, B6 mice
Protocol: Tumor bearing mice were given a single intratumoral injection of AdDCs at doses of 10^5, 10^6, and 10^7 cells and daily i.p. injection of Activating Ligand at a single dose of 30 mg/kg/day for 6 days or 13 days beginning on the day of the injection of 10^7 cells. […] There was no effect of the Activating Ligand alone (without AdDCs) on tumor growth.
In a similar experiment to FIG. 12, the Activating Ligand was administered by oral gavage for 9 and 12 days. The anti-tumor dose response with an oral formulation of the Activating Ligand at different doses in Labrasol was assessed.
B16 melanomas were established s.c. for 7 days in the right flanks of 5 syngeneic B6 mice. On day 7, DC.SP1-IL-12 (bone marrow derived DC infected at an MOI of 100 using the SP1 optimal switch) were injected intratumorally (i.t.) at doses of 10E5, 10E6 or 10E7. RG-115932 was provided by i.p. injection beginning on the day of DC injection (and daily thereafter for either 6 days or 13 days). Each cohort contained 5 animals, with tumor growth monitored every 3-4 days and reported as mean size (mm squared based on the product of orthogonal measurements). Individual animal weights were also assessed at the time of tumor measurements (FIG. 13). All animals rendered free of disease by any therapy were rechallenged on day 50 (post-initial B16 tumor inoculation) with 10E5 B16 melanoma cells on the opposite flank (left flank) of the original tumor and with 10E5 MC38 colon carcinoma cells on the right flank. Tumor growth was monitored every 3-4 days and compared against growth observed in naïve (untreated) animals (see FIG. 12).

[7] = tested on: GL261 gliomas; test: Intracranial GL261 glioma survival, i.t. transduced DC plus i.p. RG-115830; assay type: in vivo, mice; details: at 50 days; DC expressing IFN-alpha and IL-12 under RTS, RG-115830 intra-peritoneal
Excerpt: Abbreviations in this figure are as follows: Ad-IFNa is Adenoviral vector constitutively expressing IFN-alpha; Ad-RTS-IFNa is Adenoviral vector encoding IFN-alpha under RTS control; Ad-RTS-IFNa no ligand is Adenoviral vector containing RTS and IFN-alpha where no activator ligand was present; Ad-IFNa/IL-12 corresponds to DC transduced with Adenoviral vectors encoding IFN-alpha and IL-12; and Ad-RTS-IFNa/IL-12 corresponds to DC transduced with two Adenoviral vectors encoding IFN-alpha and IL-12 under RTS control.
In this example, dendritic cells were isolated from bone marrow, transduced with the Adenoviral constructs depicted in FIG. 7, and mice bearing syngeneic intracranial GL261 gliomas were intratumorally injected with engineered dendritic cells; and RG-115830 was injected intra-peritoneal. […] The data reveal that ligand induced expression of IFN-alpha and IL-12 through activation of the RTS with RG-115830 ligand promoted 75 percent survival at 50 days of GL261 glioma mice; as compared to IFN-alpha expression alone. Furthermore, the control provided by the RheoSwitch and ligand promoted enhanced survival.

[8] = tested on: DC infected with rAd.RheoIL12 (DC.RheoIL12); test: IL-12p70 secretion by adenovirus-infected murine BM-derived DC (ELISA); assay type: cell-based, mouse
Protocol: DCs were generated from murine bone marrow as previously described (Tatsumi et al., 2003). Briefly, wild-type or EGFP Tg mouse BM was cultured in CM supplemented with 1000 units/ml recombinant murine granulocyte/macrophage colony-stimulating factor and recombinant mIL-4 (Peprotech, Rocky Hill, N.J.) at 37° C. in a humidified, 5% CO2 incubator for 7 days. CD11c^+ DC were then isolated using specific MACSTM beads, per the manufacturer's protocol (Miltenyi Biotec, Auburn, Calif.). CD11c^+ DC produced in this manner were >95% pure based on morphology and co-expression of the CD11b, CD40, CD80, and class I and class II MHC antigens.
Day 7 cultured DC were untreated, were infected with recombinant Ads encoding murine IL-12p70 driven off a constitutive (rAd.cIL12) or inducible (rAd.RheoIL12) promoter, or were infected with mock, control vector rAdψ5, over a range of MOIs. At various time points after this (0-48 h), DC were then cultured in the absence or presence of an activating ligand (10-200 μg/ml) for an additional 24 h prior to analysis of IL-12p70 secretion using a specific ELISA kit (BDPharMingen, San Diego, Calif.; lower level of detection=62.5 pg/ml). […] Alternatively, after 48 h, infected DC were harvested and analyzed for phenotype and for production of IL-12p70 using the ELISA kit (BD-PharMingen, San Diego, Calif.), with a lower level of detection of 62.5 pg/ml. […]

[9] = tested on: B16 melanoma; test: Established s.c. B16 melanoma, i.t. DC plus i.p. RG-115830; assay type: in vivo, C57BL/6 mice; details: RG-115830 alone, or DC.RheoIL12 in the absence of RG-115830
Protocol: B6 mice received subcutaneous injection of 1×10^5 B16 melanoma cells in the right flank on day 0. On day 7, tumors reached a size of approximately 20-30 mm^2 and mice were treated with i.t. injections of PBS or 1×10^6 control vs. adenoviral transduced (MOI=100) DC in a total volume of 50 μl of PBS. Mice also received i.p. injections of 200 μg RG-115830 (in 50 μl DMSO) vs. DMSO carrier control that were initiated at 0 h, 24 h or 48 h post-DC administration, as indicated. After initiation, mice received a total of 5 consecutive daily intraperitoneal injections of RG-115830 at this dose. In additional experiments, ligand was administered beginning on the day of DC injection and then terminated 1, 3 or 5 days post-DC injection to discern whether early cessation of IL-12p70 transgene promotion reduced the therapeutic benefits of this approach. In all cases, tumor size was assessed every 3 or 4 days and recorded in mm^2 by determining the product of the largest perpendicular diameters measured by vernier calipers. Data are reported as the average tumor area±SD. All animal cohorts contained 5 mice/group.
B16 melanoma cells (1×10^5) were injected s.c. in the […] flank of syngenic H-2^b B6 mice and allowed to establish. On day 7, mice were randomized into cohorts of 5 animals each, with a mean cohort tumor size of approximately 20-30 mm^2. […]

Compound | IL-12 expression [1] | IL-12 production [2] | efficacy by route of ligand administration ([3]; DC-SP1 i.t. therapy, ligand 30 mg/kg/day) | ligand dose giving optimal anti-tumor effects ([3]; DC-SP1 i.t. therapy, ligand i.p.) [mg/kg/day] | efficacy by route in mouse melanoma model ([3]; DCs transduced with murine IL-12 under RTS) | B16 tumor growth, ligand alone ([3]; no DC, any dose or any route) | activation of the RTS [4] | IL12 expression [5] | tumor regression ([6]; 13 days in a row with 10^7 dendritic cells) | suppression of tumor growth, 13 days instead of 6 days of ligand ([6]; i.p. 30 mg/kg/day with AdDCs) | anti-tumor dose response, oral ligand ([6]; oral gavage in Labrasol for 9 and 12 days) | oral dose with the greatest responses ([6]; orally for 12 days, Labrasol) [mg/kg/day] | tumor growth, ligand alone ([6]; without AdDCs) | survival [7] [%] | RG-115830 concentration for optimal infected DC production of IL-12p70 ([8]; MOI of 100) [µg/mL] | IL-12p70 production after delayed provision of RG-115830 ([8]; delayed for up to 48 h compared to 0 h timepoint) | therapeutic benefit [9]
CCC[C@@H](N(NC(=O)c1cccc(OC)c1CC)C(=O)c1cc(C)cc(C)c1)C(C)(C)C [RG-115932, (R)-3,5-Dimethyl-benzoic acid N-(1-tert-butyl-butyl)-N′-(2-ethyl-3-methoxy-benzoyl)-hydrazide] | induced IL-12 expression in these transduced human DCs | produced IL-12 in a dose dependent manner | equally effective if ligand is administered by i.p. injection, oral gavage, or diet admix | > 30 | effective in intraperitoneal and oral routes | had no impact on B16 tumor growth | capable of activating the RTS | induction of IL12 expression in response to the activator drug in a dose dependent way | effective in causing tumor regression over a 25 day period | significantly more robust suppression of tumor growth | dose dependent anti-tumor effect | 50 | no effect |  |  |  | 
CCCC(N(NC(=O)c1cccc(OC)c1CC)C(=O)c1cc(C)cc(C)c1)C(C)(C)C (centres unmarked) [RG-115830, 3,5-Dimethyl-benzoic acid N-(1-tert-butyl-butyl)-N′-(2-ethyl-3-methoxy-benzoyl)-hydrazide] |  |  |  |  |  |  |  |  |  |  |  |  |  | 75 | 50 to 200 | did not result in any significantly reduced production of IL-12p70 | failed to yield any therapeutic benefit
